Converted amounts (≈) assume the structure as drawn.
What was measured:
[1] = tested on: hyperuricemic mice; test: Action of lowering serum uric acid levels for hyperuricemic mice (potassium oxonate model); type: in vivo, BALBc mice; conditions: FIG. 2
Protocol: As to the animals used, male 7-week old BALBc mice were purchased from CLEA Japan, Inc., and subjected to an experiment after a one-week period of conditioning. The animals were bred in a breeding room with air-conditioning facilities (temperature: 23.5°±1.0° C., humidity: 55±10 RH %, the number of ventilation: 12 to 15 times/hour, illuminated: from 7:00 to 19:00 each day). During the period of conditioning, the mice were allowed to take a commercially available feed (CE-2, manufactured by CLEA Japan, Inc.) and distilled water ad libitum.
Oxonic acid is a substance that raises a blood uric acid level by inhibiting a urikase, a metabolic enzyme for uric acid. In view of the above, potassium oxonate (PO) was administered, thereby generating hyperuricemic model animals (see, Planta Med 2009; 75:302-306). Studies were made on the following 6 groups:
In all the groups that include PO administration, PO previously suspended in a 0.5% aqueous CMC-Na solution at 250 mg/kg was administered, and Normal Group was administered with a 0.5% aqueous CMC-Na solution, each being administered intraperitoneally. […] After 2 hours from the administration with PO, the blood was collected from the abdominal vena cava under anesthesia. After blood removal, the liver was harvested. The collected blood was allowed to stand at room temperature for 45 minutes, and centrifuged at 8,000 rpm for 10 minutes to recover sera. Here, the sera and the liver were preserved at −80° C. until the measurements were carried out.
The serum uric acid level was measured using 7180 Clinical Analyzer (manufactured by Hitachi Technologies).
The actions of lowering serum uric acid levels of soybean peptide heat-treated products were studied using hyperuricemic model animals, in the same manner as in Test Example 2. Concretely, the animals used were furnished in the same manner as in Test Example 2, and studies were made on the following 5 groups.
For each of the above-mentioned groups, the administration and the blood collection were carried out in the same manner as in Test Example 2 to measure a serum uric acid level. […]
Here, the heat-treated product of the soybean peptide obtained by dissolving a soybean peptide (Hinute AM, manufactured by FUJI OIL, CO., LTD.) in distilled water in a concentration of 200 mg/mL, heating to 132° C. for 3 hours, and lyophilizing the heated mixture was used. The content of the cyclic dipeptide of the soybean peptide heat-treated product was measured according to LC-MS/MS under the following conditions. […]

[2] = biological target: xanthine oxidase (XO); test: In vitro xanthine oxidase (XO) inhibiting action; type: biochemical; conditions: Table 1; PBS pH 7.5, xanthine substrate, absorbance at 295 nm after 30 minutes; mean±standard error; read-out: IC50 (Activity of Inhibiting XO of Tyr-Containing Cyclic Dipeptides)
Protocol: The in vitro xanthine oxidase (XO) inhibiting action was studied on 210 kinds of cyclic dipeptides, linear dipeptides Tyr-Gly and Gly-Tyr, and an amino acid Tyr. […] Thereafter, 20 μL of a 250 μM xanthine solution previously dissolved in the PBS was added thereto, and the absorbance after 30 minutes was measured using a spectrophotometer (Synegy HT, manufactured by Bio Tek). The XO inhibition rate (%) at each concentration was calculated by the following calculation formula, to obtain activities of inhibiting XO (IC50 values).

[3] = Stability of standard product in aqueous solution (LC-MS/MS content measurement); type: physicochemical
[4] = Solubility in water; type: physicochemical; conditions: Table 5
Protocol: Concretely, each compound was added to distilled water (manufactured by Otsuka Pharmaceutical Co., Ltd.) at an ambient temperature (25° C.) so as to have a final concentration of 5 mM, and the mixture was stirred under ultrasonication for 30 minutes to dissolve. […] However, none of the compounds dissolved, so that distilled water was further added thereto so as to have a final concentration of 0.01 mM, and the mixture was stirred under ultrasonication for 30 minutes, but still no compounds dissolved.

[5] = biological target: T1, xanthine oxidase (XO) (Mus musculus, UniProt Q00519); test: XO activity in the liver and sera of hyperuricemic mice; type: in vivo, BALBc mice; conditions: 100 mg/kg orally
T1 construct: the collected supernatant was subjected to an assay for a xanthine oxidase (XO) activity; from tissue; host or cells: liver homogenate supernatant and serum of male BALBc mice (potassium oxonate hyperuricemia model)
T1 sequence (Q00519 whole entry): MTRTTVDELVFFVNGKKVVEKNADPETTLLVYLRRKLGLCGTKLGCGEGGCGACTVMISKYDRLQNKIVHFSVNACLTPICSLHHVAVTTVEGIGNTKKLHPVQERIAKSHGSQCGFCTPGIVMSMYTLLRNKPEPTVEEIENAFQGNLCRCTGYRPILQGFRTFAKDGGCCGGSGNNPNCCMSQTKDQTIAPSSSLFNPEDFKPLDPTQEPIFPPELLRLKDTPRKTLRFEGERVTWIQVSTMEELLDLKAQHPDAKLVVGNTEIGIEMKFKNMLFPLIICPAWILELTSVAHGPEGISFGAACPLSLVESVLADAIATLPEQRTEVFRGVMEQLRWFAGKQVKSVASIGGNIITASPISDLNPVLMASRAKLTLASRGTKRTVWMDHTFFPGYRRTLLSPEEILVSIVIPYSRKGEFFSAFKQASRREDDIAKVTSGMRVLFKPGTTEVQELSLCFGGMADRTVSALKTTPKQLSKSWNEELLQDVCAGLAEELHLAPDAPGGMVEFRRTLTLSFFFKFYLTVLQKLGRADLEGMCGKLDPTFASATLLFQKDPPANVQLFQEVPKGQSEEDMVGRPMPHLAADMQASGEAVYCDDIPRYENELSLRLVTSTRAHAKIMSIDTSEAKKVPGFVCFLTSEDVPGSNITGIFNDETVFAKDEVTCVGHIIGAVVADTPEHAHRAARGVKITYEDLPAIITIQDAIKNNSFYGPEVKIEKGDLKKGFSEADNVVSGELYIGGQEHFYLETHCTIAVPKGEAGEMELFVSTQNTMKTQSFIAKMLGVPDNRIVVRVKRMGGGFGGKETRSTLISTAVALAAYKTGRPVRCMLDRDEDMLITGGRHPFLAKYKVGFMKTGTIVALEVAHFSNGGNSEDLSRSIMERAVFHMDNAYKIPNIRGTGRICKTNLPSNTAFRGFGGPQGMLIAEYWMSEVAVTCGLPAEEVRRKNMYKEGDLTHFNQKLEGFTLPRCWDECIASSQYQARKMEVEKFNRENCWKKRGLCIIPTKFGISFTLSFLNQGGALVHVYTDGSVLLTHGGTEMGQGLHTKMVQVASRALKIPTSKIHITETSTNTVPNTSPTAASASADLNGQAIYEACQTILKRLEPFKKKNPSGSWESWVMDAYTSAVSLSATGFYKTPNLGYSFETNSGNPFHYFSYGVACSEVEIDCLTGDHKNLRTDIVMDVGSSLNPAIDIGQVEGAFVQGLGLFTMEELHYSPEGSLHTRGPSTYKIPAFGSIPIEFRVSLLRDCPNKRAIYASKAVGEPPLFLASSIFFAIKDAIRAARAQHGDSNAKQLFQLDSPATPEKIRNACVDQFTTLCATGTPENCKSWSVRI
Protocol: As to the animals used, male 7-week old BALBc mice were purchased from CLEA Japan, Inc., and subjected to an experiment after a one-week period of conditioning. […] During the period of conditioning, the mice were allowed to take a commercially available feed (CE-2, manufactured by CLEA Japan, Inc.) and distilled water ad libitum.
Next, the livers of mice were added to a mixture of an ice-cooled protease inhibitor cocktail and an EDTA-containing tissue protein extraction reagent (T-PER), homogenized, and then centrifuged at 15,000 rpm, at 4° C. for 15 minutes, and the collected supernatant was subjected to an assay for a xanthine oxidase (XO) activity. […]

IC50 [2] [µM] | stability of the standard product in an aqueous solution [3] | solubility in water (in words) [4] | solubility at 30 min ([4]; distilled water, 25° C., ultrasonication 30 minutes, visual examination, tested at 5, 1, 0.1, 0.01 mM, insoluble = not dissolved at 0.01 mM) [µM] | xanthine oxidase activity in the sera ([5]; FIG. 3 lower panel) | xanthine oxidase activity in the liver ([5]; FIG. 3 upper panel) | Compound | serum uric acid level vs PO Group ([1]; 1 mg/kg orally) | serum uric acid level vs PO Group ([1]; 30 mg/kg orally) | serum uric acid level vs PO Group ([1]; 100 mg/kg orally) | action of lowering serum uric acid level, dose dependence ([1]; 10, 30, 100 mg/kg orally, 1 h after PO 250 mg/kg i.p., blood 2 hours after PO)
 |  |  |  |  |  | Oc1ncnc2[nH]ncc12 [Allopurinol, reference compound] | significant difference in effects on the PO Group |  |  | 
77.2 ± 4.7 | unstable in an aqueous solution |  |  |  |  | O=C1NC(Cc2ccc(O)cc2)C(=O)NC1CS (centres unmarked) [Cyclo(Tyr-Cys)] |  |  |  | 
49 ± 3 |  | high solubility in water | 1000 (≈ 220 µg/mL) | inhibited | inhibited | O=C1CNC(=O)C(Cc2ccc(O)cc2)N1 (centres unmarked) [Cyclo(Tyr-Gly), cyclotyrosylglycine] |  | significant difference in effects on the PO Group | significant difference in effects on the PO Group | action of lowering a uric acid level in a dose-dependent manner
